We go through one compound from PMC4076079, “Selective inhibitors of a PAF biosynthetic enzyme lysophosphatidylcholine acyltransferase 2” (Journal of Lipid Research, 2014).

In the test the target is T1, hLPCAT2 (Homo sapiens, UniProt Q7L5N7).
T1 construct: expressed in transfected cells; host or cells: CHO-S-PAFR cells (microsomal fraction), with or without mcPAF stimulation
T1 sequence (Q7L5N7 1-544): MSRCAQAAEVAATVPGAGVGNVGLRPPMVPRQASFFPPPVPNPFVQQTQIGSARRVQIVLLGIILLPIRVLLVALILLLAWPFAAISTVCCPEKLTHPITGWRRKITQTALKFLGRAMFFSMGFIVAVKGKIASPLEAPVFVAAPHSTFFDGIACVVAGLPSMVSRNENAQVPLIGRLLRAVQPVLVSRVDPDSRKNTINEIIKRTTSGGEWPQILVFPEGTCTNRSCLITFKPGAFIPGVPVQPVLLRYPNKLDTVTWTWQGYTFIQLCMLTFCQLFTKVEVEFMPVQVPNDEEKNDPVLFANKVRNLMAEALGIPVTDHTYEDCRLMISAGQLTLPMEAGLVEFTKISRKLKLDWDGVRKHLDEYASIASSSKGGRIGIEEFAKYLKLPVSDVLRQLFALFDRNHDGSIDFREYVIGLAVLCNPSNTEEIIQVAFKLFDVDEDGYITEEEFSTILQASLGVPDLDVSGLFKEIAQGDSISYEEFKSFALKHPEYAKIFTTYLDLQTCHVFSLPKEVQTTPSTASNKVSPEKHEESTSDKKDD
Description: kinetic analysis of lyso-PAFAT activity. The format is biochemical. Particulars: lyso-PAFAT activity of hLPCAT2, competitive with acetyl-CoA; Dixon plot, Prism; mcPAF-stimulated microsomes; read-out: Inhibition constant (apparent Ki value). The method, then:
Microsomal protein fractions (0.5 μg) supplemented with the indicated compound concentrations were added to the reaction mixture containing 100 mM Tris-HCl (pH 7.4), 1 μM CaCl2, 0.015% Tween-20, and two substrates. For acetyltransferase activity, the substrates were 1 mM acetyl-CoA and 5 μM d4-lyso-PAF; for the acyltransferase activity of LPCAT1 or LPCAT2, the substrates were, respectively, palmitoyl-CoA and d31-16:0 LPC or arachidonoyl-CoA and d4-lyso-PAF (all 5 μM). Each lysophospholipid contained fatty acid at the sn-1 position. After incubation at 37°C for 5 min, the reactions were stopped by adding 300 μl methanol containing 17:0 LPC or 14:0/14:0 PC as an internal standard. Deuterium-labeled products were analyzed by LC-MS/MS (Waters, Milford, MA and Thermo Scientific, Waltham, MA).
To investigate the mechanism by which TSI-01 inhibited lyso-PAFAT activity of hLPCAT2, kinetic analysis was performed. CHO-S-PAFR cells overexpressing hLPCAT2 were stimulated with or without mcPAF for 30 s and analyzed for lyso-PAFAT activity in the microsomal fraction. […] Inhibition constant (apparent Ki value) of TSI-01 was also calculated as 30–40 nM using Prism software (Fig. 6D).
Fig. 6. Effects of TSI-01 on kinetics of LPCAT2 enzymatic activity. […]

pKi: −log10 of the molar value.

On to `CC(C)OC(=O)c1ccc(N2C(=O)C(Cl)=C(Cl)C2=O)cc1` [TSI-01, propan-2-yl 4-(3,4-dichloro-2,5-dioxopyrrol-1-yl)benzoate], for which the pKi was 7.40 to 7.52.
